Laboratory results: patent publication US11300640B2, “Protein reporters for ultrasensitive detection methods” (The Trustees of the University of Pennsylvania, priority 2017, dated 2022)
Numbering of substitutions follows the chain as printed. Names may count otherwise. “Also recorded” adds a separate entry of the source.

Columns and labels:
MBP = MBP (Escherichia coli, UniProt P0AEX9); settings: binding to MBP; cited from earlier work
[1] = 129Xe hyper-CEST NMR of GFP-RBP mutants
Method: To evaluate whether GFP-RBP(L19A) reports any Xe hyper-CEST contrast, a hyper-CEST z-spectrum was acquired from 10 μM GFP-RBP(L19A) in the presence and absence of ribose. Multiple selective Dsnob-shaped saturation pulses were scanned over the chemical shift range of 93-358 ppm in 5 ppm steps, and the ^129Xe(aq) signal was measured as a function of saturation pulse offset (FIG. 55).
To assess the detection sensitivity of GFP-RBP(L19A), time-dependent saturation transfer experiments were performed by measuring Xe(aq) polarization as a function of saturation time. Shaped saturation pulses were applied at the chemical shift of Xe@RBP(L19A)closed, and the residual aqueous ^129Xe signal after saturation transfer was measured as an on-resonance CEST response. Saturation frequencies of Dsnob-shaped pulses were positioned at +42.5 and −42.5 ppm, referenced to the Xe(aq) peak, for on- and off-resonance, respectively. The pulse length was 1.727 ms, and the field strength was 170 μT. The normalized difference between on- and off-resonance signals was represented by the saturation contrast.

[2] = parameters: Ka of Xe binding / Ka for Xe binding to MBP+βCD: unit not given here; settings: cited from earlier work; for xenon association constant: room temperature
[3] = MBP fluorescence quenching by maltose; format: binding; settings: 4 μM MBP, 400 μM maltose, 20 mM HEPES pH 7.4, excitation 280 nm
Method: Fluorescence spectra were obtained on a Tecan Infinite M1000 PRO microplate reader using black 96 well flat-bottom microplates (Grenier Bio-One). […] Excitation was at 280 nm and emission was scanned from 300 to 400 nm in 1 nm increments. All fluorescence assays were performed in triplicate and averaged. Fluorescence spectra were background corrected by subtracting the fluorescence spectrum of the well solution in the absence of protein.

BL21(DE3) E. coli = test: Hyper-CEST of MBP expressed in E. coli (pET-MBP plasmid); format: cell-based; settings: for Contrast, corrected: contrast of non-induced E. coli subtracted; for T1off / T1on: OD600=9; for saturation contrast: OD600=9, +95/−95 ppm
Source text: All cell solutions were normalized to OD600=9. Saturation frequencies of Dsnob-shaped pulses were positioned at +95 ppm and −95 ppm, referenced to the Xe(aq) peak, for on- and off-resonance, respectively. Pulse length, τpulse=1.0496 ms; field strength, B1,max=279 μT. Both on-resonance and off-resonance data were fitted with first-order exponential decay curves.

[4] = 129Xe hyper-CEST NMR of purified MBP and MBP mutants; settings: for T1off / T1on / saturation contrast: 100 nM WT MBP
Source text: Briefly, HP ^129Xe was generated using the spin-exchange optical pumping (SEOP) method with a home-built ^129Xe polarizer based on the IGI.Xe.2000 commercial model by GE. A Shark 65 W tunable ultra-narrow band diode laser (OptiGrate) set to 795 nm was used for optical pumping of Rb vapor. A gas mixture of 88% helium, 10% nitrogen, and 2% natural abundance xenon (Linde Group, N.J.) was used as the hyperpolarizer input. ^129Xe hyperpolarization level was roughly 10-15%. For each data point in the hyper-CEST z-spectra, HP ^129Xe was bubbled into the NMR tube through capillaries for 20 seconds, followed by a 3-second delay to allow bubbles to collapse. A Dsnob saturation pulse with 690 Hz bandwidth was used. Pulse length tpulse=3.80 ms, field strength B1, max=77 μT, number of pulses npulse=400, saturation time Tsat=1.52 s. NMR experiments were performed using a Bruker BioDRX 500 MHz NMR spectrometer and 10-mm PABBO probe, at 300 K. A 900 hard pulse of this probe has a pulse length of 22 μs. Unless otherwise noted, the protein concentration used was 80 μM, with 0.1% (v/v) Pluronic L81 (Aldrich) added to mitigate foaming.
Briefly, hyperpolarized (hp)^129Xe was generated using the spin-exchange optical pumping (SEOP) method with a home-built ^129Xe polarizer based on the IGI.Xe.2000 commercial model by GE. A Shark 65 W tunable ultra-narrow band diode laser (OptiGrate) set to 795 nm was used for optical pumping of Rb vapor. A gas mixture of 88% helium, 10% nitrogen, and 2% natural abundance xenon (Linde Group, N.J.) was used as the hyperpolarizer input. ^129Xe hyperpolarization level was roughly 10-15%. For each data point in the hyper-CEST z-spectra, hp ^129Xe was bubbled into the NMR tube through capillaries for 20 s, followed by a 3-s delay to allow bubbles to collapse. A d-SNOB saturation pulse with 690 Hz bandwidth was used. Pulse length, tpulse=3.80 ms; field strength B1,max=77 μT; number of pulses, npulse=400; saturation time, Tsat=1.52 s. NMR experiments were performed using a Bruker BioDRX 500 MHz NMR spectrometer and 10-mm PABBO probe, at 300 K. A 900 hard pulse of this probe has a pulse length of 22 μs. Unless otherwise noted, the protein concentration used was 80 μM, with 0.1% (v/v) Pluronic L81 (Aldrich) added to mitigate foaming. […] Pulse length, Tpulse=1.0496 ms; field strength, B1max=279 μT. Both on-resonance and off-resonance data were fitted with first-order exponential decay curves.

[5] = RBP from E. coli; read-out: Kd for ribose; cited from earlier work
[6] = bla hydrolase activity assay pre- and post-CEST; format: biochemical; settings: 5 nM enzyme, 450 μM nitrocefin, 50 mM Tris pH 7.4, 5% DMSO
Method: The hydrolysis of nitrocefin was monitored at A482 using an Infinite M1000 Pro plate reader (Tecan).
Product formation was monitored at A482 using an Infinite M1000 Pro plate reader (Tecan). The assays were performed in triplicate for pre- and post-hyper CEST bla(I263A) and bla(I279N) samples.

[7] = induced E. coli with maltose, 6±4 μM MBP
[8] = induced E. coli without maltose, 15±6 μM MBP

## OC[C@H]1O[C@@H]2O[C@H]3[C@H](O)[C@@H](O)[C@@H](O[C@H]4[C@H](O)[C@@H](O)[C@@H](O[C@H]5[C@H](O)[C@@H](O)[C@@H](O[C@H]6[C@H](O)[C@@H](O)[C@@H](O[C@H]7[C@H](O)[C@@H](O)[C@@H](O[C@H]8[C@H](O)[C@@H](O)[C@@H](O[C@H]1[C@H](O)[C@H]2O)O[C@@H]8CO)O[C@@H]7CO)O[C@@H]6CO)O[C@@H]5CO)O[C@@H]4CO)O[C@@H]3CO [βCD, β-cyclodextrin]
MBP
  Kd: 1800 nM

## GFP-RBP(L19A): fusion of GFP and ribose binding protein with L19A mutation (SEQ ID NO: 46)
[1]; 100 nM GFP-RBP(L19A), pulses at +42.5/−42.5 ppm
  saturation contrast (maximum): 0.30±0.01
[1]; 10 μM protein, unliganded (no ribose)
  saturation response in z-spectrum: only a single saturation response

## hemoglobin [reference compound]
[2]
  xenon association constant: around 200 M^−1

## maltose binding protein [MBP]
[3]
  magnitude of fluorescence quenching by maltose: 22%
BL21(DE3) E. coli; E. coli with maltose
  Contrast per μM MBP: 0.05 ± 0.03
  Contrast, corrected: 0.28
BL21(DE3) E. coli; E. coli without maltose
  Contrast per μM MBP: 0.013 ± 0.005
  Contrast, corrected: 0.19
BL21(DE3) E. coli; background subtracted, normalized to MBP concentration
  increase in observed CEST contrast generated by maltose: 3.7 fold
BL21(DE3) E. coli; [7]
  T1off: 16.7 ± 0.6 s
  T1on: 4.94 ± 0.10 s
  saturation contrast: 0.60±0.02
BL21(DE3) E. coli; [8]
  T1off: 9.3 ± 0.3 s
  T1on: 5.35 ± 0.17 s
  saturation contrast: 0.40±0.06
[4]; 0 μM maltose
  T1off: 44 ± 3 s
  T1on: 41 ± 2 s
[4]; 0 μM maltose, pH 7.2 PBS, 300 K
  saturation contrast: 0.022±0.004
[4]; 0.1 μM maltose
  T1off: 41 ± 3 s
  T1on: 34 ± 1 s
  saturation contrast: 0.050±0.007
[4]; 0.3 μM maltose
  T1off: 43 ± 1 s
  T1on: 35 ± 1 s
  saturation contrast: 0.05±0.01
[4]; 0.5 μM maltose
  T1off: 39 ± 1 s
  T1on: 26.3 ± 0.9 s
  saturation contrast: 0.11±0.01
[4]; 1 μM maltose
  T1off: 50 ± 1 s
  T1on: 32.7 ± 0.7 s
  saturation contrast: 0.118±0.007
[4]; 3 μM maltose
  T1off: 46 ± 2 s
  T1on: 26 ± 1 s
  saturation contrast: 0.161±0.004
[4]; 1 mM maltose
  T1off: 55 ± 3 s
  T1on: 21.8 ± 0.6 s
  saturation contrast: 0.26±0.01
[4]; 1 mM maltose, listed as WT MBP
  T1on: 21.8 ± 0.7 s
[4]; 100 nM protein sensor
  lowest maltose concentration readily detected (detection threshold): 100 nM
[4]; 80 μM MBP, 1 mM β-cyclodextrin
  downfield saturation response in z-spectrum: no downfield Xe@MBP peak; also recorded: no downfield saturation response
[4]; 80 μM protein, without maltose
  saturation response in z-spectrum: only a single saturation response
[2]; 1H-15N HSQC NMR
  Ka for Xe binding to MBP+maltose: too low to measure
  Ka for Xe binding to MBP+βCD: 20±10
[2]; MBP in the open conformation, HSQC NMR
  Ka of Xe binding: 20±10
[2]; experimentally determined literature values
  Xe binding affinity (association constant): 20 ± 10 M⁻¹

## myoglobin [reference compound]
[2]
  xenon association constant: around 200 M^−1

B1: ribose binding protein (protein)
chain: KDTIALVVSTLNNPFFVSLKDGAQKEADKLGYNLVVLDSQNNPAKELANVQDLTVRGTKILLINPTDSDAVGNAVKMANQANIPVITLDRQATKGEVVSHIASDNVLGGKIAGDYIAKKAGEGAKVIELQGIAGTSAARERGEGFQQAVAAHKFNVLASQPADFDRIKGLNVMQNLLTAHPDVQAVFAQNDEMALGALRALQTAGKSDVMVVGFDGTPDGEKAVNDGKLAATIAQLPDQIGAKGVETADKVLKGEKVQAKYPVDLKLVVKQ
modifications: Native amino acid sequence of RBP for expression in E. coli
[5]
  Kd: 130 nM

B2: RBP(L19A): ribose binding protein having a L19A mutation (SEQ ID NO: 44) (protein)
chain: B1 chain with L19A
modifications: Amino acid sequence of RBP(L19A)
[2]; 1H-15N HSQC NMR
  xenon binding affinity, closed conformation: 40 ± 20 M⁻¹
  xenon binding affinity, open conformation: 70 ± 30 M⁻¹

B3: I263A: bla having an I263A mutation (SEQ ID NO: 5) (protein)
chain: MSIQHFRVALIPFFAAFCLPVFAHPETLVKVKDAEDQLGARVGYIELDLNSGKILESFRPEERFPMMSTFKVLLCGAVLSRVDAGQEQLGRRIHYSQNDLVEYSPVTEKHLTDGMTVRELCSAAITMSDNTAANLLLTTIGGPKELTAFLHNMGDHVTRLDRWEPELNEAIPNDERDTTMPAAMATTLRKLLTGELLTLASRQQLIDWMEADKVAGPLLRSALPAGWFIADKSGAGERGSRGIIAALGPDGKPSRIVVAYTTGSQATMDERNRQIAEIGASLIKHW
modifications: TEM-1 beta-lactamase with a I263A mutation (mutation at residue 259)
[6]; listed as bla(I263A)
  Initial Rate, after CEST: 0.153±0.009 A482 min^−1
  Initial Rate, before CEST: 0.142±0.002 A482 min^−1

B4: I279N: bla having an I279N mutation (SEQ ID NO: 6) (protein)
chain: B3 chain with A259I, I275N
modifications: TEM-1 beta-lactamase with a I279N mutation (mutation at residue 275)
[6]
  Initial Rate, after CEST: 0.047 ± 0.002 A482 min^−1
  Initial Rate, before CEST: 0.044 ± 0.003 A482 min^−1
